This is an account of results in publication PMC12027554, “Inhibition of ABCG2 by SCO-101 Enhances Chemotherapy Efficacy in Cancer” (International Journal of Molecular Sciences, 2025).

SMILES strings stand for the structures.

Data set [1] deals with HT29SN-38 cells. Kind of data set: 3H-SN-38 uptake in cell monolayers. It counts as cell-based, human. To be noted: HT29SN-38 monolayers. On the procedure:
Cells were seeded at a density of 1.8 × 10^4 cells/well in 96-well plates and sub-cultured for 48 h. Drugs were dissolved in HBSS transport buffer (HBSS, 0.05% BSA, 10 mM HEPES, pH 7.4) at different concentrations. All treatments were investigated in technical triplicates. On the day of the experiments, the culture medium was exchanged with 100 μL transport buffer and cells incubated for 15 min at 37 °C. Next, the blank transport buffer was exchanged with 50 μL transport buffer containing the different compounds (2X of final concentrations) and incubated for an additional 15 min at 37 °C. The uptake experiment was started by adding 50 μL of 2 μCi/mL ^3H-SN38 and stopped after 15 min of incubation at 37 °C by removing the transport buffer from all wells. Cell monolayers were washed twice by adding/removing ice-cold transport buffer and lysed for 15 min at RT in 100 μL 0.1% TritonX-100. Cell lysates were transferred to scintillation vials containing 2 mL of scintillation fluid (Ultima Gold, PerkinElmer). Each well was washed with 100 μL purified water (milliQ), which was also transferred to respective scintillation vials. The radioactivity in each scintillation vial was measured by means of scintillation counting (Tri-Carb 2910 TR, PerkinElmer, Waltham, MA, USA).

Details of data set [2]: method as in PMID 32628359. To be noted: four independent Phase I studies; cited from earlier work.
Data set [3] addresses MDR1/ABCB1 (Homo sapiens, UniProt P08183). Kind of data set: Bidirectional transport of digoxin across Caco-2 cell monolayers. The class given is cell-based. On the set-up: endogenous in cells; host or cells: Caco-2. To be noted: Caco-2 monolayers, 50 µM SCO-101. On the procedure: Bidirectional transport experiments (basolateral-to-apical and apical-to-basolateral) with the ABCG2 substrate estrone-3-sulfate and the MDR1/ABCB1 substrate digoxin were performed in Caco-2 cell monolayers as previously described.

Data set [4] has as its target T1, ABCG2 (Homo sapiens, UniProt Q9UNQ0).
T1 sequence (Q9UNQ0 1-655): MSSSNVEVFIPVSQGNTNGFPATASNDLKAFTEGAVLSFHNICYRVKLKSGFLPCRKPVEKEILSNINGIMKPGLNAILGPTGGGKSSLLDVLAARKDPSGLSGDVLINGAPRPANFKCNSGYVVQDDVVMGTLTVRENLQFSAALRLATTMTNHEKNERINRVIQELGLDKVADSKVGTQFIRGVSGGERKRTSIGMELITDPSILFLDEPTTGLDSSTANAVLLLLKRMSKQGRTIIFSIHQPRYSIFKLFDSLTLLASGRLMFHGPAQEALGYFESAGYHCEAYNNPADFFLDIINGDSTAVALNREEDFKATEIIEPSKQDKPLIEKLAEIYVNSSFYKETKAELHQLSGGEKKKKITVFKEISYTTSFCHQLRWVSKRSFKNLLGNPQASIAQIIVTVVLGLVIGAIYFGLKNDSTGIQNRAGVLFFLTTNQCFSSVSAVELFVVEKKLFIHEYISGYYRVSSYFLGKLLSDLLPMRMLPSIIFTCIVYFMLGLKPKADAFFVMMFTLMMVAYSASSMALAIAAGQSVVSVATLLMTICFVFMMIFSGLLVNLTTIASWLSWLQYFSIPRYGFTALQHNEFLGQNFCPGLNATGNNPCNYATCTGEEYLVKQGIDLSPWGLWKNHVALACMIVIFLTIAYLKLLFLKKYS
Put plainly: Efflux transporter inhibition, vesicular uptake into inside-out membrane vesicles (ABCG2). It counts as biochemical. On the set-up: purchased SOLVO biotechnology, Budapest, Hungary. Here is the method: Efflux transporter inhibition was evaluated by measuring vesicular uptake into inside-out membrane vesicles (SOLVO biotechnology, Budapest, Hungary) expressing a single human ABC transporter (0.67 mg/mL ABCB1; 0.67 mg/mL ABCC2; 0.33 mg/mL ABCG2 membrane protein) of a probe substrate (1 μM N-methyl-quinidine for ABCB1; 100 μM 5(6)-carboxy-2′,7′-dichlorofluorescein for ABCC2; 1 μM Eestrone-3-sulfate for ABCG2) in the presence of SCO-101 with and without ATP (4 mM) in 96-well plate format. Control solvent and control inhibitors (4–60 μM verapamil for […]; 1–15 μM sulfasalazine for ABCG2; 5.5–150 μM benzbromarone for ABCC2) were incubated in parallel. Vesicular uptake was conducted at 37 °C in incubation buffer (10 mM Tris-HCl, pH 7.4, 10 mM MgCl2, 250 mM sucrose) and terminated after 1 min (ABCB1 and ABCG2) or 5 min (ABCC2) by adding ice-cold washing buffer (10 mM Tris-HCl, pH 7.4, 100 mM NaCl, 250 mM sucrose). […] Probe quantification was conducted using LC-MS/MS peak areas (solvent control with ATP − AMP = 100%). […] The remaining transporter activity % was calculated according to the formula below, and fitting was performed using GraphPad Prism: A%=AATP,sample−AAMP,sample/AATP,solvent−AAMP,solvent

Sequence of MDR1/ABCB1 (P08183 whole entry): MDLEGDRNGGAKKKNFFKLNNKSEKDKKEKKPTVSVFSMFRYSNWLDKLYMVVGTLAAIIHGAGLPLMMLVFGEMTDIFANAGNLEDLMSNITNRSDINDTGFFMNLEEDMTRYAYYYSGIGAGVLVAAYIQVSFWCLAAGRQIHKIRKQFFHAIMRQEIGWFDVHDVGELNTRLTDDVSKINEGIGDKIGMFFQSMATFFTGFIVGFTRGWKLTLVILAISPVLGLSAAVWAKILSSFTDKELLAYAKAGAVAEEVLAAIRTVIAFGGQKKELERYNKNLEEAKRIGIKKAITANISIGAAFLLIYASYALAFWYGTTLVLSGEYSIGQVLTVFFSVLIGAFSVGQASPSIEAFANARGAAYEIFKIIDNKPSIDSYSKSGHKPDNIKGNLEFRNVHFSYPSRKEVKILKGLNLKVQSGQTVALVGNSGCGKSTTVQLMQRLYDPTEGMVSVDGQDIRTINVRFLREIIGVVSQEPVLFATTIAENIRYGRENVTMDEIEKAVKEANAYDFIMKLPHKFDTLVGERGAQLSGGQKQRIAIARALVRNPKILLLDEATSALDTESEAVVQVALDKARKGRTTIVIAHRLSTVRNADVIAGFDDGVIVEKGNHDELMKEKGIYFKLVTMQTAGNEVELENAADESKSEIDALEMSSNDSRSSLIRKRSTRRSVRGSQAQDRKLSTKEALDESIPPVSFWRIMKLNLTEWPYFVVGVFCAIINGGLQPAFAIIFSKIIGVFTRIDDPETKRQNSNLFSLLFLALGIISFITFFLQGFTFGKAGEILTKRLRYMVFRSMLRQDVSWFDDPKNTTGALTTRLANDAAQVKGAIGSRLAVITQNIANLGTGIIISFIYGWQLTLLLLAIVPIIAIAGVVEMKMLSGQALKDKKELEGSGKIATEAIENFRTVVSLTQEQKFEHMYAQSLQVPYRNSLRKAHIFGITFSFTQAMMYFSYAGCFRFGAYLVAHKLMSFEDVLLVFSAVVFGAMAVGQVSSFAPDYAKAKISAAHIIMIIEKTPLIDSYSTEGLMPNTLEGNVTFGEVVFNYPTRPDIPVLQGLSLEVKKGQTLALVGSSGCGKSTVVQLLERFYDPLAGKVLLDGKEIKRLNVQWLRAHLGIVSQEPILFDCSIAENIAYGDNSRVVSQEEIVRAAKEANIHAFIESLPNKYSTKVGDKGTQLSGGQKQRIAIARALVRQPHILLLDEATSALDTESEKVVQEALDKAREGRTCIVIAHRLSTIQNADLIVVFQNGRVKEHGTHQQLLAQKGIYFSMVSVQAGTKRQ

Take `O=C(Nc1cc(C(F)(F)F)cc(C(F)(F)F)c1)Nc1ccc(Br)cc1-c1nnn[nH]1` [SCO-101, N-[4-Bromo-2-(1H-1,2,3,4-tetrazol-5-yl)phenyl]-N′-[3,5-bis(trifluoromethyl)phenyl]urea]: in data set [1] (SCO-101 25 µM, Ko-143 0.5 µM, ZSQ 0.5 µM, vs control (HBSS)), the “cellular accumulation of 3H-SN-38” value is reported as “greater than those of Ko-143-treated cells”. Moreover, in data set [1] (Homo sapiens, read-out: EC50, 3H-SN-38 uptake (regarded as IC50 of ABCG2 inhibition)), the half-maximal effective concentration (EC50) came out at 6.4 µM. Moreover, the toxicity result in data set [2] is reported as “low SCO-101 toxicity”. Further, the “transport of the MDR1/ABCB1 substrate digoxin” value in data set [3] is reported as “only a limited difference”. In addition, the half-inhibitory concentration (IC50) in data set [4] (ABCG2 inside-out vesicles, 1 μM estrone-3-sulfate, SCO-101 0.001–300 µM, read-out: IC50, ATP-dependent vesicular uptake of probe substrate (remaining ABCG2 activity)) worked out at 160 nM. Further, in data set [4] (selectivity for ABCG2), the “IC50 for MDR1/ABCB1 and MRP2/ABCC2 relative to ABCG2” value is above 100 fold.
